Assay results: patent US12528777B2, “Quinazolinones derivatives for treatment of non-alcoholic fatty liver disease, preparation and use thereof” (Council of Scientific and Industrial Research, priority 2020, dated 2026)
“Also recorded” adds a separate entry of the source.

What was measured:
ATGL [1] = test: ATGL level in primary mouse hepatocytes (western blot); assay type: cell-based; details: 24 hours
Experimental: To further strengthen the efficiency of the compounds 9 and 107, primary hepatocytes were isolated from mice and these compounds were treated in a dose dependent manner for 24 hours. Primary hepatocytes and adipose tissue explants were isolated from mice and subjected to compound treatment for 24 hours at the doses of 100 nM, 500 nM and 1 μM. Post cell harvesting, western blot was carried out with the lysate to check the ATGL level. ATGL and COP1 antibodies were used. Actin served the purpose of a loading control.
1. Hepatocytes—2-4 months old chow-fed black male mouse (C57bl/6) was sacrificed using chloroform (SRL) and was cleaned with 70% ethanol. […] Blood was drawn from the heart in order to prevent backflow into liver while perfusion. The butterfly cannula was inserted into the PV and 20 ml of HBSS (Hank's Balanced Salt Solution; 5 mM KCl, 0.4 mM KH2PO4, 4 mM NaHCO3, 140 mM NaCl, 0.3 mM Na2HPO4, 6 mM Glucose, HEPES, 0.5 mM MgCl2·6H2O, 0.4 mM MgSO4·7H2O, 0.5 mM EDTA; not containing 1 mM CaCl2)) was allowed to pass through the liver (Perfusion) at a constant flow rate of 3 ml/min, maintained by Masterflex digital peristaltic pump (Cole-Parmer). The IVC was cut as soon as the passage of the buffer through the liver began, so that blood and perfusate from liver is drained through the IVC. The liver blanched and became pale in color upon this treatment.
After the passage of HBSS, 25 ml of Collagenase (Roche) solution (1 mg/ml) in HBSS (containing 1 mM CaCl2)) was allowed to pass through the liver at a constant flow rate of 2 ml/min. After this digestion, the flow was stopped, the cannula removed and the pale and soggy lobes of the liver were gently excised from the body. The gall bladder was removed from the isolated liver. The pieces of digested liver tissue were then minced on a 10 cm culture plate in HBSS (containing 1 mM CaCl2)). The resulting suspension was then passed through a […] cell strainer (SPL) to allow hepatocytes to pass through to the filtrate and retain cellular clumps and undigested tissue. The filtrate was centrifuged at 50 g for 2 minutes at 4° C. […]

ATGL [2] = test: qPCR of ATGL mRNA in HepG2 cells; assay type: cell-based; details: 5 μM and 10 μM, 24 hours
Experimental: Ubiquitination of ATGL by COP1 is a post translational event, therefore, it is expected that the mRNA level of ATGL will not change compared to control upon treatment with the compound of the present disclosure which inhibit COP1. To establish this, HepG2 cells were treated with 5 μM and 10 μM of the compounds 9, 107, 171, 179 and 73 for 24 hours. RNA was isolated using TRIzol reagent followed by chloroform treatment and precipitation with isopropanol. cDNA was obtained from the isolated RNA and qPCR was carried out using SyBr green reagent. COP1 and ATGL gene expression levels were checked. 18s was used as control. FIG. 8 illustrates that compounds exert no effect on the mRNA levels of ATGL.

HepG2 cells = test: Basal oxygen consumption rate (OCR) by Seahorse; assay type: cell-based; details: 5 μM, 24 hours
Experimental: HepG2 cells were plated in Seahorse cell culture microplates (24 well). Cells were treated with 5 μM of compounds 9, 107, 238 and 238a for 24 hours. The calibrator plate was dipped in the calibrator solution and incubated overnight at 37° C. in a non-CO2 incubator. The next day, cells were washed with Agilent Seahorse XF Base Medium, Minimal DMEM twice, making sure to leave at least 50 μl of media in the wells and incubated for 1 hour at 37° C. in a non-CO2 incubator. Following this, oxygen consumption rate was measured in the Seahorse instrument. FIG. 12 illustrates basal oxygen consumption rate of compounds 9, 107, 238a, and 238.

[3] = Lipophilicity assay (octanol/buffer); assay type: physicochemical; details: for logD: n-octanol / 10 mM sodium phosphate buffer pH 7.4, LC-UV; for Lipophilicity class from Log D: pH 7.4
Experimental: 1.56 g NaH2PO4·2H2O was dissolved in 0.5 L water in a 1 L beaker. After adjusting pH to 7.4 using NaOH solution, the volume was made up to 1 L. Equal volumes of sodium phosphate buffer (10 mM, pH 7.4) and n-octanol were added to a separation funnel and mixed thoroughly by shaking and inverting the funnel several times. The two layers were allowed to separate for overnight and then dispensed in two separate glass bottles. 10 mM stock solution was prepared in 100% DMSO and stored at 4° C. 495 μL of organic phase (1-octanol) was added to each well of a 2 mL deep well plate, followed by 495 μL of buffer and 10 μL of test compound was added. The plate was incubated for 3 hr at room temperature on a plate shaker at 500 rpm. After incubation, the samples were allowed to equilibrate for 20 min and then centrifuged at 4000 rpm for 30 min for complete phase separation and analysed by LC-UV.
Log D=Log (area of octanol/area of buffer)

For `COCCn1cnc2ccc(NC(=O)Nc3cccc(C(C)=O)c3)cc2c1=O` [Compound 9, 1-(3-acetylphenyl)-3-(3-(2-methoxyethyl)-4-oxo-3,4-dihydroquinazolin-6-yl)urea], the “ATGL level in primary mouse hepatocytes” value (ATGL [1]) was “increase ATGL level; also recorded: subtle inclination towards increasing ATGL level”, the “ATGL mRNA level” value (ATGL [2]) was “no significant changes” and the “Basal oxygen consumption rate” value (HepG2 cells) was “higher oxygen consumption rate compared to control; also recorded: increase in the basal OCR values”.

In the case of `COCCn1c(-c2ccncc2)nc2ccc(NC(=O)Nc3cccc(C(C)=O)c3)cc2c1=O` [Compound 219, 1-(3-acetylphenyl)-3-(3-(2-methoxyethyl)-4-oxo-2-(pyridin-4-yl)-3,4-dihydroquinazolin-6-yl)urea], the logD [3] is reported as 0.19 and the “Lipophilicity class from Log D” value [3] is reported as “hydrophilic”.

For `COCCn1c(-c2cccnc2)nc2ccc(NC(=O)Nc3cccc(C(C)=O)c3)cc2c1=O` [Compound 215, 1-(3-acetylphenyl)-3-(3-(2-methoxyethyl)-4-oxo-2-(pyridin-3-yl)-3,4-dihydroquinazolin-6-yl)urea], the logD [3] was 0.42 and the “Lipophilicity class from Log D” value [3] was “hydrophilic”.

In the case of `COCCn1c(CN2CCCCC2)nc2ccc(NC(=O)Nc3cccc(C(C)=O)c3)cc2c1=O` [Compound 238, 1-(3-acetylphenyl)-3-(3-(2-methoxyethyl)-4-oxo-2-(piperidin-1-ylmethyl)-3,4-dihydroquinazolin-6-yl)urea], the logD [3] is reported as 1.6, the “Lipophilicity class from Log D” value [3] is reported as “ideal lipophilicity” and the “ATGL level in primary mouse hepatocytes” value (ATGL [1]) is reported as “increase ATGL and COP1 levels dose dependently; also recorded: enhance ATGL levels at 1 μM and 5 μM doses”. For the same compound, the “Basal oxygen consumption rate” value (HepG2 cells) was “higher oxygen consumption rate compared to control; also recorded: increase in the basal OCR values”.

With `COCC(C)n1cnc2ccc(NC(=O)Nc3cccc(C(C)=O)c3)cc2c1=O` (stereo not shown) [Compound 179, 1-(3-acetylphenyl)-3-(3-(1-methoxypropan-2-yl)-4-oxo-3,4-dihydroquinazolin-6-yl)urea] the logD [3] was 1.69, the “Lipophilicity class from Log D” value [3] was “ideal lipophilicity” and the “ATGL mRNA level” value (ATGL [2]) was “no significant changes”.

With `COCCn1c(C)nc2ccc(NC(=O)Nc3cccc(C(C)=O)c3)cc2c1=O` [Compound 107, 1-(3-acetylphenyl)-3-(3-(2-methoxyethyl)-2-methyl-4-oxo-3,4-dihydroquinazolin-6-yl)urea] the “ATGL level in primary mouse hepatocytes” value (ATGL [1]) was “increase ATGL level; also recorded: subtle inclination towards increasing ATGL level”, the “ATGL mRNA level” value (ATGL [2]) was “no significant changes” and the “Basal oxygen consumption rate” value (HepG2 cells) was “higher oxygen consumption rate compared to control; also recorded: increase in the basal OCR values”.

In the case of `CC(=O)c1cccc(NC(=O)Nc2ccc3ncn(CCCN4CCOCC4)c(=O)c3c2)c1` [Compound 139, 1-(3-acetylphenyl)-3-(3-(3-morpholinopropyl)-4-oxo-3,4-dihydroquinazolin-6-yl)urea], the logD [3] is reported as -0.5 and the “Lipophilicity class from Log D” value [3] is reported as “hydrophilic”.
